“And” between values parts separate entries of the source, which are not always exact repeats. Equal entries are not always repeated.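 Interpolation was linear, between the two tested concentrations surrounding the appropriate level; five concentrations were tested over 48 hours in 96-well plates. GI50 = concentration required for 50% inhibition of growth. At the TGI there is no net growth.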
What was measured:
Assay in all cases: NCI anticancer screen, dose series, 48 h
[1] = system: HL-60(TB) leukemia
[2] = system: NCI/ADR-RES ovarian
[3] = system: SK-OV-3 ovarian
[4] = system: U251 CNS
[5] = system: HCT-116 colon
[6] = system: PC-3 prostate
[7] = system: OVCAR-5 ovarian
[8] = system: KM12 colon
[9] = system: TK-10 renal
[10] = system: HOP-92 NSCLC

Compound	GI50 [1]	TGI [1]	GI50 [2]	TGI [2]	GI50 [3]	TGI [3]	GI50 [4]	TGI [4]	GI50 [5]	TGI [5]	GI50 [6]	TGI [6]	GI50 [7]	TGI [7]	GI50 [8]	TGI [8]	GI50 [9]	TGI [9]	GI50 [10]	TGI [10]
O=c1cc(-c2ccccc2)oc2c(O)c(O)ccc12	11.1 µM	55.3 µM	4.04 µM	67.5 µM	23.8 µM	> 100 µM	7.72 µM	> 100 µM	4.01 µM	> 100 µM	7.74 µM	> 100 µM	22 µM	> 100 µM	10.3 µM	> 100 µM	7.5 µM	71.1 µM		
C[N+]1(CCNP(=S)(NCC[N+]2(C)Cc3c(ccc4c3OCO4)C3C2c2cc4c(cc2C[C@@H]3O)OCO4)NCC[N+]2(C)Cc3c(ccc4c3OCO4)C3C2c2cc4c(cc2C[C@@H]3O)OCO4)Cc2c(ccc3c2OCO3)C2C1c1cc3c(cc1C[C@H]2O)OCO3 (stereo partly drawn)	1.02 µM				2.96 µM		1.99 µM		1.43 µM					< 0.00191 µM	1.78 µM		8.2 µM		3.43 µM	
CCCC(=O)Oc1ccc(/C=N/NC(N)=S)nc1		> 100 µM				> 100 µM		> 100 µM		> 100 µM				> 100 µM		> 100 µM		> 100 µM		> 100 µM
CCOC(=O)NC(=O)c1cn(C2CCCCC2)c(=O)n(C)c1=O		> 100 µM				> 100 µM		> 100 µM		> 100 µM				> 100 µM		> 100 µM		> 100 µM		> 100 µM
CCCCCCCCCCNC(=S)OC		44.8 µM				> 100 µM		> 100 µM		> 100 µM								> 100 µM		65.9 µM
CC(=O)O[C@H]1CC[C@@]2(C)C(=CC[C@H]3C(CC#N)[C@@](C)(C#N)CCC32)C1 (stereo partly drawn)		> 100 µM				> 100 µM		> 100 µM		> 100 µM				> 100 µM		> 100 µM		> 100 µM		88.9 µM
CC(=O)N(N=O)c1ccc(N(N=O)C(C)=O)cc1		> 100 µM				> 100 µM		> 100 µM		> 100 µM				> 100 µM						> 100 µM
C/C(=N\NC(=O)c1ccccc1O)c1c(O)cc(C)oc1=O		> 100 µM				86.7 µM		> 100 µM		> 100 µM				> 100 µM		> 100 µM		> 100 µM		68.3 µM
Cc1ccc(NC(=O)C(=O)C2C(=O)NC(=O)NC2=O)c(C)c1		> 100 µM				> 100 µM		> 100 µM		> 100 µM				> 100 µM		> 100 µM		> 100 µM		> 100 µM
CC(=O)OC1CC2C(C)(C)C(=O)C=C[C@]2(C)C2CCC3(C)C(c4ccoc4)C(=O)C4OC43[C@]12C (stereo partly drawn)		29.9 µM				43.6 µM		41.6 µM		26 µM				60.9 µM		29.3 µM		> 100 µM		38.1 µM
C=C1C2CC(OC(C)=O)C3(C)C(c4ccoc4)OC(=O)[C@@H](O)[C@]13OC1C[C@H](OC(C)=O)C(C)(C)[C@H](C(O)C(=O)OC)[C@]12C (stereo partly drawn)		> 100 µM				> 100 µM		> 100 µM		> 100 µM						> 100 µM		> 100 µM		57.6 µM
Nc1ccc(C(=O)CC2(O)C(=O)Nc3ccccc32)cc1 (stereo not drawn)		> 100 µM				> 100 µM				> 100 µM				> 100 µM				> 100 µM		> 100 µM
COc1cccc(/C=C2\N=C(Cl)OC2=O)c1O		> 100 µM				> 100 µM		> 100 µM		> 100 µM				> 100 µM		> 100 µM		> 100 µM		> 100 µM
CC1=NC(C)=C(/C(C)=N/NC(=O)c2ccccc2O)C(C)/C1=C(/C)NNC(=O)c1ccccc1O (stereo not drawn)		22.4 µM				> 100 µM		> 100 µM		48.3 µM				92.1 µM		> 100 µM		98.8 µM		85.9 µM
O=C(Nc1ccc(Cl)cc1)c1cc(NCc2cc(O)ccc2O)ccc1O	1.4 µM	4.86 µM	4.43 µM	62.9 µM	25 µM	60.7 µM	3.96 µM	13.4 µM	3.48 µM	18.2 µM	1.89 µM	4.92 µM	4.77 µM	19 µM	3.33 µM	14.6 µM	11.1 µM	23.6 µM		
CN1C(c2ccccc2)CC(=NO)CC1c1ccccc1 (stereo not drawn)	22 µM	40.7 µM and 68 µM	48.8 µM			> 100 µM		> 100 µM	33.9 µM	33.6 µM				> 100 µM	49.1 µM	> 100 µM	66.5 µM	> 100 µM		> 100 µM
C=CCC1(CN(C)C)CC/C(=C\c2cc(OC)c(OC)c(OC)c2)C1=O (stereo not drawn)		20.6 µM						59.5 µM		31.3 µM				> 100 µM		32.8 µM		36.4 µM		> 100 µM
CON1C(=O)C2(CCCCC2)C(=O)C12C=CC(C)CC2 (stereo not drawn)		> 100 µM				> 100 µM		> 100 µM								> 100 µM		> 100 µM		
CSc1nc2c(nc(N)n2C2OC(CO)C(O)C(O)C2O)c(=O)[nH]1 (stereo not drawn)		> 100 µM				> 100 µM		> 100 µM		> 100 µM						> 100 µM		> 100 µM		> 100 µM
CCCCSC1CCSc2c1ccc1ccccc21 (stereo not drawn)		> 100 µM				> 100 µM		> 100 µM		> 100 µM				> 100 µM		> 100 µM		> 100 µM		> 100 µM
NCCCNCc1c2ccccc2c(CNCCCN)c2ccccc12		39.3 µM						> 100 µM		48.2 µM				62.1 µM		43.9 µM		> 100 µM		49.1 µM
COc1cccc(C2SC(C)C(=O)N2NC(=O)C(O)c2ccccc2)c1 (stereo not drawn)					> 100 µM	> 100 µM	> 100 µM	> 100 µM	> 100 µM	> 100 µM	> 100 µM	> 100 µM	> 100 µM	> 100 µM	> 100 µM	> 100 µM	> 100 µM	> 100 µM	> 100 µM	> 100 µM
O=C(O)C(Cc1ccccc1)N=Cc1nc(-c2ccccc2)oc1O (stereo not drawn)		> 100 µM				> 100 µM		> 100 µM		> 100 µM				> 100 µM		> 100 µM		> 100 µM		
